Assay: in vitro
Settings: human, hela cells, % viability

In order of rising viability at 28.5 h, 10 µM:
1. Cc1cc(C)c(C)c(S(=O)(=O)Nc2ccc(O)c(Sc3nc[nH]n3)c2)c1C [CBK267012]  66.6%
2. COc1ccccc1CNC(=O)c1ccc(Cl)c(S(=O)(=O)N2CCOCC2)c1 [CBK267060]  69.3%
3. S=C(NCc1ccco1)Nc1nn(Cc2ccc(Cl)cc2Cl)cc1Cl [CBK267021]  80.7%
4. O=C(Cn1cc(/C=C/c2[nH]c(=O)[nH]c(=O)c2[N+](=O)[O-])c2ccccc21)Nc1ccc2c(c1)OCO2 [CBK267036]  80.8%
5. Cc1ccc(NC(=O)CC(C(=O)O)N(C)C)cc1 (stereo not drawn) [CBK267068]  81.7%
6. Cc1ccc(-c2c(C(=O)NNC(=S)NCC3CCCO3)csc2C)cc1 (stereo not drawn) [CBK267062]  86.6%
7. Cc1ccccc1C(=O)Nc1cccc(NC(=O)c2nc[nH]n2)c1 [CBK267108]  86.6%
8. Cc1cc(C)c(S(=O)(=O)NC(CC(=O)O)c2ccccc2)cc1C (stereo not drawn) [CBK267081]  86.8%
9. CC(=O)Nc1ccc(S(=O)(=O)NCc2ccc3[nH]c4c(c3c2)CCCC4)cc1 [CBK267122]  87.1%
10. FC(F)(F)c1ccccc1NC(=S)Nc1ncn(Cc2ccc(Cl)c(Cl)c2)n1 [CBK267130]  87.1%
11. CC(NS(=O)(=O)c1ccc(CCC(=O)O)cc1)c1ccccc1 (stereo not drawn) [CBK267058]  88.1%
12. COc1ccc(NC(=O)Nc2nn(Cc3c(F)cccc3Cl)cc2Cl)cc1OC [CBK267019]  89.3%
13. O=C(Oc1ccc(N(C(=O)c2ccncc2)S(=O)(=O)c2cccc3cccnc23)cc1)c1ccncc1 [CBK267123]  89.5%
14. COc1ccc(Cl)cc1NC(=S)NCCn1cc(Cl)cn1 [CBK267063]  89.8%
15. NS(=O)(=O)c1ccc(NC(=S)Nc2nn(Cc3ccc(Cl)cc3Cl)cc2Cl)cc1 [CBK267020]  90.6%
16. CC(=O)c1ccc(-c2ccc(/C=C\c3[nH]c(=O)[nH]c(=O)c3[N+](=O)[O-])o2)cc1 [CBK267038]  90.7%
17. CCn1cc(C(=O)O)c(=O)c2cnc(N3CCN(C(=S)NC(=O)C4c5ccccc5Oc5ccccc54)CC3)nc21 [CBK267114]  91.6%
18. Cc1cc(=O)oc2cc(NC(=S)N3CCN(C/C=C/c4ccccc4)CC3)ccc12 [CBK267045]  92%
19. Cc1cc(C)cc(C(=O)NC(=S)Nc2sc(C)c(C)c2C#N)c1 [CBK267089]  92.1%
20. CCN1CCN(C(=O)c2ccc(CN(c3ccc(C)c(C)c3)S(C)(=O)=O)cc2)CC1 [CBK267132]  92.6%
21. Cc1cc(C)nc(Nc2n[nH]c(-c3ccc(NC(=O)Nc4ccccc4)cc3)n2)n1 [CBK267076]  92.7%
22. c1ccc2c(c1)nc(-c1cscn1)n2CCCCc1nnn[nH]1 [CBK267110]  93.7%
23. Cc1nn(C)c(C)c1CN1CCN(C(=S)Nc2ccc(S(N)(=O)=O)cc2)CC1 [CBK267030]  94.1%
24. Cc1ccc(C)c(NC(=O)CC2C(=O)N(c3ccccc3)C(=S)N2Cc2ccco2)c1 (stereo not drawn) [CBK267119]  94.3%
25. COC(=O)c1c(NC(=S)N2CCN(Cc3c(C)nn(C)c3C)CC2)sc2c1CCC(C)C2 (stereo not drawn) [CBK267103]  94.9%
26. Cc1ccc2oc(-c3cc(NC(=O)Cn4cnc5c(=O)n(C)c(=O)n(C)c54)ccc3O)nc2c1 [CBK267112]  95.1%
27. Cc1ccc([N+](=O)[O-])cc1/C=C(/C#N)c1nc2ccccc2s1 [CBK267085]  95.4%
28. COC(=O)c1c(NC(=S)NCc2ccccn2)sc2c1CCC2 [CBK267090]  95.9%
29. O=S(=O)(c1ccc(Cl)cc1)N1CCN(S(=O)(=O)N2CCCCC2)CC1 [CBK267075]  96.1%
30. Cc1cc(C)nc(Nc2n[nH]c(Cc3ccccc3)n2)n1 [CBK267023]  96.3%
31. Cc1[nH]c2ccc(C(=O)O)cc2c1CC(=O)O [CBK267080]  96.3%
32. CN1CCN(C(=O)CN(C)S(=O)(=O)c2ccc3ccccc3c2)CC1 [CBK267053]  96.4%
33. CC(C)(C)NS(=O)(=O)c1ccc(NC(=O)COc2ccc3ccccc3c2Br)cc1 [CBK267015]  96.5%
34. S=C(NCc1ccc(-n2cccn2)cc1)NCC1CCCO1 (stereo not drawn) [CBK267083]  96.7%
35. COC(=O)c1c(NC(=S)NCc2ccc(S(N)(=O)=O)cc2)sc2c1CCC(C)C2 (stereo not drawn) [CBK267039]  97.6%
36. COC(=O)c1c(NC(=S)NNC(=O)c2nn(C)cc2I)sc2c1CCC2 [CBK267074]  97.7%
37. CCOC(=O)c1c(NC(=S)N2CCN(S(C)(=O)=O)CC2)sc(C)c1-c1ccccc1 [CBK267072]  98%
38. O=C(O)CC(NCc1ccccc1)C(=O)Nc1ccccc1Br (stereo not drawn) [CBK267118]  98%
39. Cc1cc(C)nc(Nc2n[nH]c(-c3cccnc3)n2)n1 [CBK267120]  98%
40. Cc1nn(C)cc1CN1CCN(C(=S)NCCc2ccccc2)CC1 [CBK267069]  98.4%
41. Cc1cc(CNC(=S)Nc2ccc(S(N)(=O)=O)cc2)nn1C [CBK267077]  98.7%
42. COC(=O)c1c(NC(=S)NCc2ccccn2)sc(C(=O)N(C)C)c1C [CBK267055]  98.8%
43. O=C(Nc1cccc(C(F)(F)F)c1)Nc1cccc(S(=O)(=O)N2CCOCC2)c1 [CBK267043]  99%
44. NS(=O)(=O)c1ccc(NC(=S)NNC(=O)C2c3ccccc3Oc3ccccc32)cc1 [CBK267024]  99.2%
45. COC(=O)c1sc(NC(=S)Nc2ccn(C)n2)c(C(=O)OC)c1C [CBK267078]  99.5%
46. Cc1cc(C)nc(Nc2n[nH]c(-c3ccc(N)cc3)n2)n1 [CBK267131]  99.5%
47. COc1cc([N+](=O)[O-])ccc1NC(=S)NCc1ccc(S(N)(=O)=O)cc1 [CBK267067]  100%
48. CC(C)(C)OC(=O)NNC(=S)Nc1ccc(S(N)(=O)=O)cc1 [CBK267107]  100%
49. CCN1CCN(C(=O)c2ccccc2N(Cc2ccccc2)S(C)(=O)=O)CC1 [CBK267028]  101%
50. COC(=O)c1cc(C)sc1NC(=S)Nc1cnn(Cc2cccc3ccccc23)c1 [CBK267098]  101%
51. COc1ccc(NC(=O)CC(C(=O)O)N2CCCCC2)cc1 (stereo not drawn) [CBK267115]  101%
52. Cc1nn(Cc2c(F)cccc2Cl)c(C)c1NC(=S)Nc1ccc(S(N)(=O)=O)cc1 [CBK267121]  101%
53. O=C(NCc1ccc2c(c1)OCO2)C1CN(S(=O)(=O)c2ccccc2)CCN1S(=O)(=O)c1ccccc1 (stereo not drawn) [CBK267059]  102%
54. O=C(O)CSc1nc2ccccc2n1CC(=O)O [CBK267128]  102%
55. O=C(CC(C(=O)O)N1CCOCC1)Nc1ccc(Cl)cc1 (stereo not drawn) [CBK267086]  105%
56. CCc1c(C)c2cc(Cl)c(O)c(CN3CCCC3)c2oc1=O [CBK267099]  105%
57. O=C(Nc1ccc2c(c1)nc1n2CCN(Cc2ccccc2)C1)NC1CCCCC1 [CBK267033]  109%
58. CC(C)N(Cc1nc(-c2ccc(Cl)cc2)no1)C(=O)COc1ccc(Br)cc1Cl [CBK267126]  111%
59. O=C(CSCc1ccc(Cl)cc1)Nc1ccc(S(=O)(=O)N2CCCCCC2)cc1 [CBK267017]  112%
60. O=C(CCc1ccc(O)c(O)c1)NNC(=S)Nc1ccc(F)cc1F [CBK267041]  114%

Source: paper PMC12040169 (PLOS Biology, 2025)
